Residues, ends and D or L forms follow the SMILES beside them. *: point of attachment. Cbz = O=C(OCc1ccccc1)*

Common to all, as to assay type: cell-based
Assay [1] concerns the target T1, 20S proteasome β1 subunit (caspase-like activity) (Rattus norvegicus, UniProt P28073).
T1 construct: gene Psmb6; with other subunits of the 20S/26S proteasome
T1 sequence (P28073 34-238): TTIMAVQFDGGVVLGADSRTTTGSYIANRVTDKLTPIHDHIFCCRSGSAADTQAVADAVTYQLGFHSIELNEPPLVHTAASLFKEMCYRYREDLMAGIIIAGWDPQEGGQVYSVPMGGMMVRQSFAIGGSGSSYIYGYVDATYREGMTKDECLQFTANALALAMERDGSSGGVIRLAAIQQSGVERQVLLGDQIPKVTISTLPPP
The assay is described as follows: caspase-like activity (Z-LLE-MCA cleavage) in lysates of INS-1E cells treated with […] MG-132. As to conditions: read-out: % inhibition at 150 nM.

Assay [2] concerns the target T2, 20S proteasome β5 subunit (chymotrypsin-like activity) (Rattus norvegicus, UniProt P28075).
T2 construct: gene Psmb5; with other subunits of the 20S/26S proteasome
T2 sequence (P28075 60-263): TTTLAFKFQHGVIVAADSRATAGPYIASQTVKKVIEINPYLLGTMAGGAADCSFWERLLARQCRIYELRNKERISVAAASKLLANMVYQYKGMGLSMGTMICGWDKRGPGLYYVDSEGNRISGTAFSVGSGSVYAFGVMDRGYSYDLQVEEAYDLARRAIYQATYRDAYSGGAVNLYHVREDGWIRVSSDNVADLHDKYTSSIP
The assay is described as follows: chymotrypsin-like activity (Suc-LLVY-MCA cleavage) in lysates of MG-132-treated INS-1E cells, dose-response.

Assay [3] addresses T3, 20S proteasome β2 subunit (trypsin-like activity) (Rattus norvegicus, UniProt Q9JHW0).
T3 construct: gene Psmb7; with other subunits of the 20S/26S proteasome
T3 sequence (Q9JHW0 44-277): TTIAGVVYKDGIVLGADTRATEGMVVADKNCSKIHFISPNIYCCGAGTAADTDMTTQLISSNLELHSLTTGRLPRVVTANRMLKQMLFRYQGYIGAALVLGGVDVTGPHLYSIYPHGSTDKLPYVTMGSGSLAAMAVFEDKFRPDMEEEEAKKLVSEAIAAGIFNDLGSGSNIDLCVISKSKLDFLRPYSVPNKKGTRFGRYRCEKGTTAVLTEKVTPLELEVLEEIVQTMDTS
Kind of assay: trypsin-like activity (Z-ARR-MCA cleavage) in lysates of INS-1E cells treated with […] MG-132. As to conditions: read-out: % inhibition at 150 nM.

Consider `CC(C)C[C@@H](C=O)NC(=O)[C@H](CC(C)C)NC(=O)[C@H](CC(C)C)NC(=O)OCc1ccccc1` [MG-132] (Cbz-Leu-Leu-Leu-aldehyde), for which the figures for the inhibition at 0.15 µM in assay [1] and in assay [3] were 80% and 50%, respectively. This compound also yielded a Ki in assay [2] of 50 nM.

Usually inhibition stands for the share of the control response that was lost under treatment. As a reminder, the Ki is the equilibrium dissociation constant of an inhibitor or competing ligand from its target. High values mean lower affinity, low ones higher affinity.

The values are drawn from article PMC3958412, “Proteasome Dysfunction Mediates High Glucose-Induced Apoptosis in Rodent Beta Cells and Human Islets” (PLoS ONE, 2014).
